From patent US9896481B2, “Modified mini-hepcidin peptides and methods of using thereof” (priority 2011, dated 2018)
Like-named read-outs stand apart in the source and are kept apart here. Each block holds one compound with its values, some of them ahead of it. Starred links: 1 amine or outer side, 2 acyl side, 3 side chain; linkers in the order of their positions; H or OH if unused. Positions of bridges follow the written chain, without caps; N, C: chain ends. Non-standard residues stand in square brackets, D forms with d. Residues, ends and D or L forms follow the SMILES beside them. No end group written: not given here. *: point of attachment. PEG12 = NCCOCCOCCOCCOCCOCCOCCOCCOCCOCCOCCOCCOCCC(=O)O; dDip = N[C@@H](C(=O)O)C(c1ccccc1)c1ccccc1; Oic = O=C(O)[C@@H]1C[C@@H]2CCCC[C@@H]2N1; Dip = N[C@H](C(=O)O)C(c1ccccc1)c1ccccc1; Palmitoyl = CCCCCCCCCCCCCCCC(=O)*; X2 = O=C(C1CCC(CN[*:1])CC1)[*:2]; Cysteamide = C(CS[*:3])N[*:1]; Chg = N[C@H](C(=O)O)C1CCCCC1; Phg = N[C@H](C(=O)O)c1ccccc1; Tle = CC(C)(C)[C@H](N)C(=O)O; Inp = O=C(O)C1CCNCC1

Biological target: T1, ferroportin tagged at the C-terminus with green fluorescent protein (Fpn-GFP) (Mus musculus, UniProt Q9JHI9)
T1 construct: expressed in transfected cells; host or cells: ECR293/Fpn-GFP (stably transfected, ponasterone-inducible)
T1 sequence (Q9JHI9 1-570): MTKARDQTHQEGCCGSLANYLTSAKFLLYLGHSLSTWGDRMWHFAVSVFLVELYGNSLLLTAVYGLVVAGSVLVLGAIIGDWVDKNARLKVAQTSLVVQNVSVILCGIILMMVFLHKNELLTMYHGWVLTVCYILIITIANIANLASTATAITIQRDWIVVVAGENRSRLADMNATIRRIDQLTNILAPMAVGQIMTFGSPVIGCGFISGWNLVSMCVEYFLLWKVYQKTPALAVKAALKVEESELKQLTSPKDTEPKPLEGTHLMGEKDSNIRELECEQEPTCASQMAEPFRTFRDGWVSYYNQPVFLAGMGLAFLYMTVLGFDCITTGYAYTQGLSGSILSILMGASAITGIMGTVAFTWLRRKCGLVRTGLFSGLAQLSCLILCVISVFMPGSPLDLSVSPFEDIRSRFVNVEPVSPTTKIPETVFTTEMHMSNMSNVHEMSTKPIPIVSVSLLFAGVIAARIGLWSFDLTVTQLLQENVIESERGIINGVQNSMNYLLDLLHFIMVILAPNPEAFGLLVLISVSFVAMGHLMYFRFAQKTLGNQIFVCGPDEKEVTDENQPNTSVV
Assay: Flow cytometry of ferroportin-GFP degradation in ECR293/Fpn-GFP cells
Format: cell-based
Details: for hepcidin activity relative to Hep25 (in words): FIGS. 1-4; for DC50: read-out: EC50 (the source's name)
Procedure: In vitro activity may be measured by the dose-dependent loss of fluorescence of cells engineered to display ferroportin fused to green fluorescent protein as in Nemeth et al. (2006) Blood 107:328-33. Aliquots of cells are incubated for 24 hours with graded concentrations of a reference preparation of Hep25 or a mini-hepcidin. As provided herein, the EC50 values are provided as the concentration of a given compound (e.g. peptide) that elicits 50% of the maximal loss of fluorescence generated by the reference Hep25 preparation.
Mutational studies indicate that C326, the cysteine residue at position 326 of human ferroportin, is the critical residue involved in binding hepcidin. Thus, various N-terminal fragments of Hep25 containing a thiol, i.e. Hep 4-7, Hep3-7, Hep3-8, Hep3-9, Hep1-7, Hep1-8, Hep1-9, and Hep1-10 C7A, were chemically synthesized, refolded and their activities relative to Hep25 were assayed using flow-cytometric quantitation of the ferroportin-GFP degradation, iron efflux estimation based on measurements of cellular ferritin, and radioisotopic iron efflux studies.
The activity of peptides of the present invention was measured by flow cytometry as previously described. See Nemeth et al. (2006) Blood 107:328-333, which is herein incorporated by reference. ECR293/Fpn-GFP, a cell line stably transfected with a ponasterone-inducible ferroportin construct tagged at the C-terminus with green fluorescent protein was used. See Nemeth et al. (2004) Science 306:2090-2093, which is herein incorporated by reference. Briefly, the cells were plated on poly-D-lysine coated plates in the presence of 20 μM FAC, with or without 10 μM ponasterone. After 24 hours, ponasterone was washed off, and cells were treated with peptides for 24 hours. Cells were then trypsinized and resuspended at 1×10^6 cells/ml, and the intensity of green fluorescence was analyzed by flow cytometry. Flow cytometry was performed on FAC SCAN (fluorescence activated cell scanner) Analytic Flow Cytometer (Becton Dickinson, San Jose, Calif.) with […] version 3.3 software (Becton Dickinson). Cells not induced with ponasterone to express Fpn-GFP were used to establish a gate to exclude background fluorescence. Cells induced with ponasterone, but not treated with any peptides, were used as the positive control. Each peptide was tested over the range of concentrations (0, 0.01, 0.03, 0.1, 0.3, 1, 3 and 10 μM). Each peptide treatment was repeated independently 3 to 6 times. For each concentration of peptide, the results were expressed as a fraction of the maximal activity (FHep25) of Hep25 (in the dose range 0.01-10 μM), according to the formula 1−((Fx−FHep25)/(Funtreated−FHep25)), where F was the mean of the gated green fluorescence and x was the peptide.

[1] = ferroportin-GFP internalization, FIG. 3
[2] = Table 1, 24 h peptide treatment, 50% of maximal loss of fluorescence by Hep25
[3] = Table 1, 24 h peptide treatment, 50% of maximal loss of fluorescence by Hep25, read-out: EC50
[4] = read-out: EC50 (nM) in vitro, Table 3

Compound: N=C(N)NCCC[C@@H]1NC(=O)C2CCC(CC2)CNC(=O)[C@@H](C(c2ccccc2)c2ccccc2)NC(=O)C2CCN(CC2)C(=O)[C@@H](N)CSSCCNC(=O)[C@H](C(c2ccccc2)c2ccccc2)NC(=O)C2CCN(CC2)C(=O)C2CCC(CC2)CNC1=O [PR-1]
EC50 (read-out: EC50): 1500 nM

hepcidin activity relative to Hep25 (in words): quite active
potency relative to Hep25 on a mass basis, times less potent [1]: about 4 times
potency relative to Hep25 on a molar basis, times less potent [1]: about 10 times
Compound: DTHFPIAIFC-NH2 [Hep10]

Compound: N=C(N)NCCC[C@@H]1NC(=O)C2CCC(CC2)CNC(=O)[C@@H](C(c2ccccc2)c2ccccc2)NC(=O)CNC(=O)[C@@H](N)CSSCCNC(=O)[C@H](C(c2ccccc2)c2ccccc2)NC(=O)C2CCN(CC2)C(=O)C2CCC(CC2)CNC1=O [PR-4] (H-CG[dDip][X2]R[X2][Inp][Dip]-Cysteamide; disulfide 1-C)
EC50 (read-out: EC50): 2000 nM

DC50 [2]: > 3 µM
Compound: CC(C)(C)[C@H](NC(=O)[C@@H](N)CC(=O)O)C(=O)N[C@@H](Cc1c[nH]cn1)C(=O)N1CCC[C@H]1C(=O)N1[C@H](C(=O)N[C@H](C(=O)N[C@@H](CS)C(=O)N[C@H](C(=O)N[C@@H](Cc2ccccc2)C(N)=O)C2CCCCC2)C2CCCCC2)C[C@@H]2CCCC[C@@H]21 [PR11] (H-D[Tle]HP[Oic][Chg]C[Chg]F-NH2)

Compound: CC[C@H](C)[C@H](NC(=O)[C@@H]1CSSC[C@H](N)C(=O)N[C@@H](CC(=O)O)C(=O)N[C@@H]([C@@H](C)O)C(=O)N[C@@H](Cc2c[nH]cn2)C(=O)N[C@@H](Cc2ccccc2)C(=O)N2CCC[C@H]2C(=O)N[C@@H]([C@@H](C)CC)C(=O)N1)C(=O)N[C@@H](Cc1ccccc1)C(N)=O [Cyc-1] (H-CDTHFPICIF-NH2; disulfide 1-8; N-terminus assumed)
EC50 [3]: 300 nM

DC50 [2]: > 3 µM
Compound: CC(C)(C)[C@H](NC(=O)[C@@H](N)CC(=O)O)C(=O)N[C@@H](Cc1c[nH]cn1)C(=O)N[C@H](C(=O)N1[C@H](C(=O)N[C@H](C(=O)N[C@@H](CS)C(=O)N[C@H](C(=O)N[C@@H](Cc2ccccc2)C(N)=O)C2CCCCC2)C2CCCCC2)C[C@@H]2CCCC[C@@H]21)c1ccccc1 [PR10] (H-D[Tle]H[Phg][Oic][Chg]C[Chg]F-NH2)

Compound: CC[C@H](C)[C@H](NC(=O)[C@H](CS)NC(=O)[C@@H](NC(=O)[C@@H]1CCCN1C(=O)[C@@H](NC(=O)[C@@H](N)CC(=O)O)C(c1ccccc1)c1ccccc1)[C@@H](C)CC)C(=O)N[C@@H](Cc1ccccc1)C(N)=O [PR40] (H-D[Dip]PICIF-NH2)
EC50 (read-out: EC50, Table 1, 24 h peptide treatment, 50% of maximal loss of fluorescence by Hep25): 70 nM

Compound: N=C(N)NCCC[C@@H]1NC(=O)C2CCC(CC2)CNC(=O)[C@@H](C(c2ccccc2)c2ccccc2)NC(=O)[C@@H]2CCCN2C(=O)[C@@H](N)CSSCCNC(=O)[C@H](C(c2ccccc2)c2ccccc2)NC(=O)C2CCN(CC2)C(=O)C2CCC(CC2)CNC1=O [PR-2] (H-CP[dDip][X2]R[X2][Inp][Dip]-Cysteamide; disulfide 1-C)
EC50 (read-out: EC50): 2000 nM

Compound: CCCCCCCCCCCCCCCC(=O)NCCOCCOCCOCCOCCOCCOCCOCCOCCOCCOCCOCCOCCC(=O)N[C@@H](C(=O)N[C@@H](C(=O)N[C@H](CS)C(=O)N[C@@H](C(=O)N1CCC[C@@H]1C(=O)N[C@@H](C(=O)N[C@H](Cc1c[nH]cn1)C(N)=O)C(c1ccccc1)c1ccccc1)[C@H](C)CC)[C@H](C)CC)C(c1ccccc1)c1ccccc1 [PR50, R4-Dpa-I-C-I-P-Dpa-H] ({Palmitoyl-PEG12}-[dDip][dI][dC][dI][dP][dDip][dH]-NH2)
EC50 [4]: < 10 nM

Compound: CCCCCCCCCCCCCCCC(=O)NCCOCCOCCOCCOCCOCCOCCOCCOCCOCCOCCOCCOCCC(=O)N[C@H](Cc1ccccc1)C(=O)N[C@H](CC(C)C)C(=O)N[C@H](CS)C(=O)N[C@H](CC(C)C)C(=O)N1CCC[C@@H]1C(=O)N[C@@H](C(=O)N[C@H](Cc1c[nH]cn1)C(=O)N[C@@H](C(=O)N[C@H](CC(=O)O)C(N)=O)[C@H](C)O)C(c1ccccc1)c1ccccc1 [PR52, R4-F-L-C-L-P-Dpa-H-T-D] ({Palmitoyl-PEG12}-[dF][dL][dC][dL][dP][dDip][dH][dT][dD]-NH2)
EC50 [4]: < 10 nM

Compound: CCCCCCCCCCCCCCCC(=O)NCCOCCOCCOCCOCCOCCOCCOCCOCCOCCOCCOCCOCCC(=O)N[C@H](Cc1ccccc1)C(=O)N[C@@H](C(=O)N[C@H](CS)C(=O)N[C@@H](C(=O)N1CCC[C@@H]1C(=O)N[C@@H](C(=O)N[C@H](Cc1c[nH]cn1)C(=O)N[C@@H](C(=O)N[C@H](CC(=O)O)C(N)=O)[C@H](C)O)C(c1ccccc1)c1ccccc1)[C@H](C)CC)[C@H](C)CC [PR47, R4-F-I-C-I-P-Dpa-H-T-D] ({Palmitoyl-PEG12}-[dF][dI][dC][dI][dP][dDip][dH][dT][dD]-NH2)
EC50 [4]: 50 nM

Compound: T2A: Hep25 with alanine substitution T2A (DAHFPICIFCCGCCHRSKCGMCCKT; disulfide (positions not given here); not fully specified (C-terminus); also: four disulfide bonds, pairing not given here; UniProt P81172 60-84, looked up, variant T2A)
hepcidin activity relative to Hep25 (in words): did not substantially impact hepcidin activity

Compound: CCCCCCCCCCCCCCCC(=O)NCCOCCOCCOCCOCCOCCOCCOCCOCCOCCOCCOCCOCCC(=O)N[C@@H](C(=O)N[C@@H](C(=O)N[C@H](CS)C(=O)N[C@@H](C(=O)N1CCC[C@@H]1C(=O)N[C@@H](C(=O)N[C@H](Cc1c[nH]cn1)C(=O)N[C@@H](C(=O)N[C@H](CC(=O)O)C(N)=O)[C@H](C)O)C(c1ccccc1)c1ccccc1)[C@H](C)CC)[C@H](C)CC)C(c1ccccc1)c1ccccc1 [PR48, R4-Dpa-I-C-I-P-Dpa-H-T-D] ({Palmitoyl-PEG12}-[dDip][dI][dC][dI][dP][dDip][dH][dT][dD]-NH2)
EC50 [4]: 50 nM

EC50 [3]: 80 nM
Compound: C[C@@H](O)[C@H](NC(=O)[C@@H](N)CC(=O)O)C(=O)N[C@@H](Cc1c[nH]cn1)C(=O)N[C@H](C(=O)N1CCC[C@H]1C(=O)N[C@@H](CS)C(=O)N[C@@H](CS)C(=O)N[C@@H](CS)C(=O)N[C@H](C(N)=O)C(c1ccccc1)c1ccccc1)C(c1ccccc1)c1ccccc1 [PR46] (H-DTH[Dip]PCCC[Dip]-NH2; N-terminus assumed)

Compound: CCCCCCCCCCCCCCCC(=O)NCCOCCOCCOCCOCCOCCOCCOCCOCCOCCOCCOCCOCCC(=O)N[C@H](Cc1ccccc1)C(=O)N[C@@H](C(=O)N[C@H](CS)C(=O)N[C@@H](C(=O)N1CCC[C@@H]1C(=O)N[C@@H](C(=O)N[C@H](Cc1c[nH]cn1)C(=O)N[C@@H](C(=O)N[C@H](CC(=O)O)C(N)=O)[C@H](C)O)C(c1ccccc1)c1ccccc1)C(C)C)C(C)C [PR51, R4-F-V-C-V-P-Dpa-H-T-D] ({Palmitoyl-PEG12}-[dF][dV][dC][dV][dP][dDip][dH][dT][dD]-NH2)
EC50 [4]: 100 nM

Compound: CCCCCCCCCCCCCCCC(=O)NCCOCCOCCOCCOCCOCCOCCOCCOCCOCCOCCOCCOCCC(=O)N[C@H](Cc1ccccc1)C(=O)N[C@@H](C(=O)N[C@H](CS)C(=O)N[C@@H](C(=O)N1CCC[C@@H]1C(=O)N[C@@H](C(=O)N[C@H](Cc1c[nH]cn1)C(N)=O)C(c1ccccc1)c1ccccc1)[C@H](C)CC)[C@H](C)CC [PR49, R4-F-I-C-I-P-Dpa-H] ({Palmitoyl-PEG12}-[dF][dI][dC][dI][dP][dDip][dH]-NH2)
EC50 [4]: < 10 nM
